Columns and labels:
claudin-5 = assay: Claudin-5 in H/R-treated bEND3 cells (Western blot); type: cell-based, mouse; conditions: tPA with H/R
Description: (§1) An immortalized mouse brain endothelial cell line (bEND 3) is purchased from American Type Culture Collection (ATCC, VA, USA) and cultured in Dulbecco's modified Eagle Medium (DMEM, ATCC) supplemented with 10% fetal bovine serum (ATCC). bEND 3 cells are seeded onto the luminal side of a filter (0.4 μm pore size; Corning, Lowell, MCA) coated with fibronectin (5 μg/ml) in 12-well plates for a transendothelial electrical resistance (TEER) test; and in 100-mm dishes for Western blot studies. Cell cultures are incubated at 37° C. in a 5%/95% mixture of CO2 and atmospheric air, and the medium is replaced every 3 days.
Peri-infarct cortical tissue is processed for protein analysis. Tissues are homogenized in T-per (Pierce, Rockford, Ill.) containing protease inhibitor cocktail (P8340, Sigma). Homogenates are centrifuged for 15 minutes at 13,000 g. […] Intensity of the bands is measured by an Image Gauge version. […]
(§2) To mimic ischemia-like conditions in vitro, immortalized mouse brain endothelial (bEND3) cells were exposed to 6 hours of hypoxia and 3 hours of reoxygeneation with or without the administration of tPA at a dose of 20 μ/ml. […] BBB integrity was evaluated by transendothelial membrane electrical resistance (TEER) measurement, MMP-9 activity, and the alteration of tight junction proteins following in vitro H/R injury.

bEND3 cells = assay: Transendothelial electrical resistance (TEER) after hypoxia/reperfusion (H/R); type: cell-based, mouse
Description: as §1
The electrical resistance across the membrane are measured using an Millicell ERS Voltohmmeter (Millipore, Billerica, Mass.). The extracellular matrix-treated Transwell inserts are placed in 12-well plates containing culture medium and then used to measure the background resistance. The resistance measurements of these blank filters are then subtracted from those of filters with cells. Values are shown as Q. based on culture inserts.
To mimic ischemia-like conditions in vitro, immortalized mouse brain endothelial (bEND3) cells were exposed to 6 hours of hypoxia and 3 hours of reoxygeneation with or without the administration of tPA at a dose of 20 μ/ml. Reoxygenation was initiated by adding glucose (4.5 g/L)-containing phenol red-free DMEM for 3 hours at 37° C. in 95% air and 5% CO2. The cells were treated with various concentrations progesterone for 24 hours before hypoxia/reperfusion (H/R). BBB integrity was evaluated by transendothelial membrane electrical resistance (TEER) measurement, MMP-9 activity, and the alteration of tight junction proteins following in vitro H/R injury.

MMP-9 [1] = assay: MMP-9 levels in bEND3 cells exposed to H/R and tPA; type: cell-based, mouse; conditions: bEND3 cells exposed to H/R and tPA for 9 hours; progesterone pretreatment
Description: The bEnd 3 cells grown to confluence on coverslips are subjected to the indicated treatments. For […], cells are washed three times with PBS, fixed in 3% paraformaldehyde for 10 minutes, permeabilized with 02% Triton X-100 in PBS for 10 minutes and blocked with 10% BSA and 0.1% Triton X-100 in PBS for 1 hour. After washing with PBS, the monolyers are incubated with a primary antibody for occludin (Invitrogen, 1:200) and MMP-9 (Abeam, Mass., USA, 1:200) overnight at 4° C. The cell monolayers are then washed 3 times with PBS and incubated with Alexa Fluor 488 anti-rabbit and orange anti-mouse (Molecular Probes, Eugene, Oreg.) for 1 hour. After washing in PBS, the coverslips are mounted on glass slides with Vectasheild with dapi (Vecta Laboratories).
as §2
To directly determine MMP-9 activity after ischemia, proteolytic activity of MMP-9 was measured using a fluorescence resonance energy transfer peptide. […]

MMP-9 [2] = assay: Permanent MCAO in rats: MMP-9 in peri-infarct cortex (Western blot, gelatin zymography, immunohistochemistry); type: in vivo, rat; conditions: for Expression of MMP-9 (immunohistochemistry): pMCAO, brain section; for Expression of MMP-9 (immunohistochemistry) / MMP-9 activity/levels (gelatin zymography): peri-infarct cortex at 72 hours; for Expression of MMP-9 (Western blot) / MMP-9 activity/levels (gelatin zymography): permanent MCAO; for Expression of MMP-9 (Western blot): 8 mg/kg i.p. 1 hour and s.c. 6 hours post-occlusion, peri-infarct cortex at 72 hours post-MCAO; for MMP-9 activity/levels (gelatin zymography): 8 mg/kg
Text: (§3) Permanent focal cerebral ischemia is induced in the rat by direct ligation of the MCA. Peri-operative procedures and physiological monitoring are done similarly to those for thrombotic stroke surgery. Briefly, under anesthesia, the left CCA is isolated through a ventral midline neck incision and ligated permanently with a 4-0 surgical silk ligature. The left temporoparietal region of the head is shaved and a 2-cm incision is made vertically between the orbit and the ear canal. The underlying temporalis muscle is excised, and under direct visualization, the […] MCA is exposed through a 2-mm burr hole drilled 2 mm rostral to the fusion of the zygomatic arch with the squamosal bone. Drilling is performed under saline irrigation to the area throughout the procedure to prevent heat injury. […] The site of the occlusion is proximal to the MCA bifurcation, but distal to the origin of the lenticulostriate arteries. Using fine forceps, the dura and arachnoid overlying the MCA is opened and cut. The MCA is cauterized and cut permanently to […] recanalization using a bipolar electrocauterizer without damaging the brain surface. The temporalis muscle and skin is closed in layers, and rats allowed to recover from anesthesia on the heating pad.
(§4) All experimental treatments by injection are made in stock solutions using HBC (2-hydroxypropyl-β-cyclodextrin, 25% w/v solution in H2O) as the solvent. The HBC vehicle allows progesterone and allopregnanolone to be dissolved in a non-toxic aqueous solution. The initial dose of progesterone is given intraperitoneally for rapid absorption; all other injections are given subcutaneously. A simlar protocol may be followed for allopregnanolone.
(§5) Peri-infarct cortical tissue is processed for protein analysis. Tissues are homogenized in T-per (Pierce, Rockford, Ill.) containing protease inhibitor cocktail (P8340, Sigma). Homogenates are centrifuged for 15 minutes at 13,000 g. 40 μg of total protein is separated on 8-12% gel and transferred onto polyvinylidene difluoride (Millipore, Mass., USA; PVDF) membranes at 300 mA for 2 hours. To measure the level of immunoglobulin, the membranes were incubated overnight at 4° C. with anti Rat IgG conjugated to biotin. bEND 3 cells are subjected to hypoxia/reperfusion for 9 hours and then lysed on ice in 100 μl of RIPA buffer. Cell lysated are boiled and then electrophoresed in 12% SDS-PAGE acrylamide gels, transferred onto PVDF membranes, and incubated for 1 hour in TBS-T (tris-buffered saline and 0.1% Tween 20) containing 5% bovine serum albumin (BSA). Membranes are then incubated overnight at 4° C. with primary antibodies against occludin (Invitrogen, Calif., USA; 1:1000), claudin-5 (Invitrogen; 1:1000), and ZO-1 (Invitrogen; 1:1000), washed in TBS-T, and incubated for 1 hour at room temperature with corresponding peroxidase-conjugated secondary antibodies (1:5000; KPL, Gaithersburg, Md.). All blots are stripped and re-incubated with β-actin antibodies (1:5000, Sigma) as a loading control. The peroxidase reaction is developed with an ECL-plus detection kit (Amersham BioScience, Piscataway, N.J.). Intensity of the bands is measured by an Image Gauge version. 4.0 program (FUJI Photo Film Co., Ltd).
(§6) Rats were randomly assigned to receive progesterone (n=5), allopregnanolone (n=5), or vehicle (n=5). Progesterone and allopregnanolone (8 mg/kg) were dissolved in 22.5% 2-hydroxypropyl-β-cyclodextrin (25% w/v solution in water) (HBC) and given by intraperitoneal injection 1 hour post-occlusion. An additional 8 mg/kg subcutaneous injection was given 6 hours after middle cerebral artery occlusion (MCAO).
(§7) The rats were euthanized at 72 hours post-MCAO. The peri-infarct region was sampled using a 4-mm tissue punch.

MMP-9 [3] = assay: Active MMP-9 fluorometric FRET peptide assay of ischemic cortex lysates; type: in vivo, rat; conditions: 24 hours after ischemia; tPA at 4.5 hours; vs control and tMCAO groups
Description: A Fluorimetric SensoLyte™ 490 kit (AnaSpec Corp., San Jose, Calif. USA) is used to quantify the specific enzymetic activity of active MMP-9 by using a fluorescence resonance energy transfer peptide containing a fluorescent donor and quenching acceptor (Lin, Hou et al. 2008). The samples (100 μg) are placed in a 96-well plate containing 50 μl of assay buffer. The proteolytic resonance energy transfer peptide is expressed as a fold change in fluorescence intensity at excitation of 355 nm/emission of 460 nm.
For in vivo evaluation, Male SD rats were subjected to MCAO, reperfused at 4.5 hours and then treated with tPA only (5 mg/kg body weight via femoral vein) at 4.5 hours post-stroke or with progesterone (intraperitoneally) at 2 hours post-stroke plus tPA at 4.5 hours post-stroke. Rats were killed at 24 hours post-ischemia and their brains perfused for evaluation of cerebral hemorrhage, brain swelling, BBB permeability, MMP-9 activity, and the alteration of tight junction proteins.
To directly determine MMP-9 activity after ischemia, proteolytic activity of MMP-9 was measured using a fluorescence resonance energy transfer peptide. […] Consistent with the Western blot results, exposure of cells to H/R and tPA for 9 hours reduced the detected levels of occludin, as compared to control bEND 3 cells, while MMP-9 levels were increased in cells exposed to H/R and tPA for 9 hours.

[4] = test system: blood-brain barrier (BBB); assay: BBB disruption: serum IgG in ischemic cortex by Western blot; type: in vivo, rat; conditions: progesterone 8 mg/kg, s.c.; with tPA; 24 hours after injury
MMP-2 = assay: Permanent MCAO in rats: MMP-2 in peri-infarct cortex (Western blot, gelatin zymography, immunohistochemistry); type: in vivo, rat; conditions: for Expression of MMP-2 (immunohistochemistry): pMCAO, brain section; for Expression of MMP-2 (immunohistochemistry) / MMP-2 activity/levels (gelatin zymography): peri-infarct cortex at 72 hours; for Expression of MMP-2 (Western blot) / MMP-2 activity/levels (gelatin zymography): permanent MCAO; for Expression of MMP-2 (Western blot): 8 mg/kg i.p. 1 hour and s.c. 6 hours post-occlusion, peri-infarct cortex at 72 hours post-MCAO; for MMP-2 activity/levels (gelatin zymography): 8 mg/kg
Text: as §3, §4, §5, §6, §7

occludin = assay: Occludin in H/R-treated bEND3 cells (Western blot, immunofluorescence); type: cell-based, mouse
Description: as §1, §5
The bEnd 3 cells grown to confluence on coverslips are subjected to the indicated treatments. […]
as §2

`CC(=O)[C@H]1CC[C@H]2[C@@H]3CCC4=CC(=O)CC[C@]4(C)[C@H]3CC[C@]12C` [progesterone, pregn-4-ene-3,20-dione] was tested, and the “Expression of 23-kDa claudin-5 (Western blot)” value (claudin-5) was “significantly prevented the decrease”, the “H/R-induced decrease of TEER” value (bEND3 cells; pretreatment with 5, 10 or 20 μM, H/R without tPA) was “significantly prevented” and the “TEER values compared to untreated” value (bEND3 cells; progesterone 20 μM, H/R with tPA (FIG. 3C)) was “significantly higher”. The MMP-9 levels (MMP-9 [1]) was “completely inhibited”, the “Expression of MMP-9 (immunohistochemistry)” value (MMP-9 [2]) was “reduced” and the “Expression of MMP-9 (Western blot)” value (MMP-9 [2]) was “decreased”. For the same compound, the “MMP-9 activity/levels (gelatin zymography)” value (MMP-9 [2]) was “decreased”, the “MMP-9 activity (FRET peptide)” value (MMP-9 [3]) was “inhibited” and the “Levels of serum IgG in ischemic cortex” value [4] was “reduced”. The “Expression of MMP-2 (immunohistochemistry)” value (MMP-2) was “reduced”, the “Expression of MMP-2 (Western blot)” value (MMP-2) was “decreased” and the “MMP-2 activity/levels (gelatin zymography)” value (MMP-2) was “decreased”. The “Detected levels of occludin (immunofluorescence)” value (occludin; bEND3 cells exposed to H/R and tPA for 9 hours, progesterone pretreatment) was “completely inhibited” and the “Expression of occludin (Western blot)” value (occludin; bEND3 cells, tPA with H/R) was “significantly prevented the decrease”.
In the case of `CC(=O)[C@H]1CC[C@H]2[C@@H]3CC[C@H]4C[C@H](O)CC[C@]4(C)[C@H]3CC[C@]12C` [allopregnanolone, 3α-hydroxy-5α-pregnan-20-one], the “Expression of MMP-9 (immunohistochemistry)” value (MMP-9 [2]) is reported as “reduced”, the “Expression of MMP-9 (Western blot)” value (MMP-9 [2]) is reported as “decreased” and the “MMP-9 activity/levels (gelatin zymography)” value (MMP-9 [2]) is reported as “decreased”. The “Expression of MMP-2 (immunohistochemistry)” value (MMP-2) was “reduced”, the “Expression of MMP-2 (Western blot)” value (MMP-2) was “decreased” and the “MMP-2 activity/levels (gelatin zymography)” value (MMP-2) was “decreased”.

Source: patent US20140127185A1, “METHODS AND COMPOSITIONS USING NEUROPROTECTIVE STEROIDS AND THROMBOLYTIC AGENTS” (priority 2012, published 2014)
